What was measured:
Format in all cases: cell-based
[1] = tested on: E. coli BL21; assay: MIC against Gram-negative bacteria: E. coli BL21; conditions: 5×10^5 CFU/mL
Procedure, shortened: (§1)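 Antibacterial activity of purified human EGF domain proteins: two-fold concentration series, triplicate wells, LB broth, 5×10^5 CFU/mL bacteria, 37° C shaking incubation. The lowest concentration without growth defines the MIC.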

[2] = tested on: Serratia marcescens; assay: MIC against Gram-negative bacteria: Serratia marcescens; conditions: 5×10^5 CFU/mL
Procedure, shortened: as §1

[3] = tested on: Klebsiella pneumonia; assay: MIC against Gram-negative bacteria: Klebsiella pneumonia; conditions: 5×10^5 CFU/mL
Procedure, shortened: as §1

[4] = tested on: Proteus vulgaris; assay: MIC against Gram-negative bacteria: Proteus vulgaris; conditions: 5×10^5 CFU/mL
Procedure, shortened: as §1

[5] = tested on: Citrobacter diversus; assay: MIC against Gram-negative bacteria: Citrobacter diversus; conditions: 5×10^5 CFU/mL
Procedure, shortened: as §1

[6] = tested on: Moraxella catarrhalis; assay: MIC against Gram-negative bacteria: Moraxella catarrhalis; conditions: 5×10^5 CFU/mL
Procedure, shortened: as §1

[7] = tested on: Enterobacter cloacae; assay: MIC against Gram-negative bacteria: Enterobacter cloacae; conditions: 5×10^5 CFU/mL
Procedure, shortened: as §1

[8] = tested on: Proteus mirabilis; assay: MIC against Gram-negative bacteria: Proteus mirabilis; conditions: 5×10^5 CFU/mL
Procedure, shortened: as §1

[9] = tested on: Pseudomonas aeruginosa; assay: MIC against Gram-negative bacteria: Pseudomonas aeruginosa; conditions: 5×10^5 CFU/mL
Procedure, shortened: as §1

[10] = tested on: Aeromonas hydrophila; assay: MIC against Gram-negative bacteria: Aeromonas hydrophila; conditions: 5×10^5 CFU/mL
Procedure, shortened: as §1

[11] = tested on: E. coli DH5α; assay: Antibacterial activity: MIC and growth curve against E. coli DH5α in 96-well plate; conditions: minimal inhibitory concentration against E. coli DH5α; 96-well plate, 5×10^5 CFU/mL, 37° C., judged after 8 h
Procedure, shortened: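 Log-phase bacteria (OD600 ~0.5) resuspended in LB at 5×10^5 CFU/mL, exposed to recombinant protein at 50, 25, 12.5 μg/mL final in triplicate, 37 °C shaking at 175 rpm. OD600 read every 30 min; MIC is lowest concentration showing no growth.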

[12] = E. coli BL21, 10 h cultivation at 37° C.
[13] = Serratia marcescens, 10 h cultivation at 37° C.
[14] = Klebsiella pneumonia, 10 h cultivation at 37° C.
[15] = Proteus vulgaris, 10 h cultivation at 37° C.
[16] = Citrobacter diversus, 10 h cultivation at 37° C.
[17] = Moraxella catarrhalis, 10 h cultivation at 37° C.
[18] = Enterobacter cloacae, 10 h cultivation at 37° C.
[19] = Proteus mirabilis, 10 h cultivation at 37° C.
[20] = Pseudomonas aeruginosa, 10 h cultivation at 37° C.
[21] = Aeromonas hydrophila, 10 h cultivation at 37° C.

PRT1303 (HGLCRSVEKDSVVCECRPGWTGPLCD; listed as Homo sapiens)
12.5 µg/mL: MIC against P. vulgaris ([4]; Proteus vulgaris, 96-well plate, 37° C., 10 h) | MIC against C. diversus ([5]; Citrobacter diversus, 96-well plate, 37° C., 10 h) | MIC against M. catarrhalis ([6]; Moraxella catarrhalis, 96-well plate, 37° C., 10 h) | MIC against E. cloacae ([7]; Enterobacter cloacae, 96-well plate, 37° C., 10 h) | MIC against P. aeruginosa ([9]; Pseudomonas aeruginosa, 96-well plate, 37° C., 10 h) | MIC [11]
50 µg/mL: MIC against E. coli BL21 ([1]; E. coli BL21, 96-well plate, 37° C., 10 h) | MIC against K. pneumonia ([3]; Klebsiella pneumonia, 96-well plate, 37° C., 10 h) | MIC against A. hydrophila ([10]; Aeromonas hydrophila, 96-well plate, 37° C., 10 h)
25 µg/mL: MIC against S. marcescens ([2]; Serratia marcescens, 96-well plate, 37° C., 10 h) | MIC against P. mirabilis ([8]; Proteus mirabilis, 96-well plate, 37° C., 10 h)

PRT496 (CSCNNHSDTCDPNTGKCLNCGDNTAGDHCDVCTSGYYGKVTGSASDCAL; listed as Homo sapiens)
12.5 µg/mL: MIC against E. coli BL21 ([1]; 96-well plate, 37° C., 10 h) | MIC against K. pneumonia ([3]; 96-well plate, 37° C., 10 h) | MIC against M. catarrhalis ([6]; 96-well plate, 37° C., 10 h) | MIC against A. hydrophila ([10]; 96-well plate, 37° C., 10 h) | MIC [11]
25 µg/mL: MIC against S. marcescens ([2]; 96-well plate, 37° C., 10 h) | MIC against P. mirabilis ([8]; 96-well plate, 37° C., 10 h)
50 µg/mL: MIC against P. vulgaris ([4]; 96-well plate, 37° C., 10 h) | MIC against C. diversus ([5]; 96-well plate, 37° C., 10 h) | MIC against E. cloacae ([7]; 96-well plate, 37° C., 10 h) | MIC against P. aeruginosa ([9]; 96-well plate, 37° C., 10 h)

PRT257 (CTDGHRGGCSEHANCLSTGLNTRRCECHAGYVGDGLQC; listed as Homo sapiens)
25 µg/mL: MIC (μg/mL) E. coli BL21 [1, 12] | MIC (μg/mL) K. pneumonia ([3]; K. pneumonia, 10 h cultivation at 37° C.) | MIC (μg/mL) M. catarrhalis ([6]; M. catarrhalis, 10 h cultivation at 37° C.) | MIC (μg/mL) A. hydrophila ([10]; A. hydrophila, 10 h cultivation at 37° C.)
12.5 µg/mL: MIC (μg/mL) S. marcescens ([2]; S. marcescens, 10 h cultivation at 37° C.) | MIC (μg/mL) P. vulgaris ([4]; P. vulgaris, 10 h cultivation at 37° C.) | MIC (μg/mL) C. diversus ([5]; C. diversus, 10 h cultivation at 37° C.) | MIC (μg/mL) E. cloacae ([7]; E. cloacae, 10 h cultivation at 37° C.) | MIC (μg/mL) P. mirabilis ([8]; P. mirabilis, 10 h cultivation at 37° C.) | MIC (μg/mL) P. aeruginosa ([9]; P. aeruginosa, 10 h cultivation at 37° C.) | MIC [11]

PRT1407 (LKTMCPDQCSGHGTYLQESGSCTCDPNWTGPDCS; listed as Homo sapiens)
25 µg/mL: MIC against E. coli BL21 [1, 12] | MIC against S. marcescens [2, 13]
50 µg/mL: MIC against M. catarrhalis [6, 17] | MIC against A. hydrophila [10, 21] | MIC [11]
12.5 µg/mL: MIC against K. pneumonia [3, 14] | MIC against P. vulgaris [4, 15] | MIC against C. diversus [5, 16] | MIC against E. cloacae [7, 18] | MIC against P. mirabilis [8, 19] | MIC against P. aeruginosa [9, 20]

PRT1422 (DVDDCILEPSPCPQRCVNTQGGFECHCYPNYDLVDGECV; listed as Homo sapiens)
12.5 µg/mL: MIC against E. coli BL21 [1, 12] | MIC against S. marcescens [2, 13] | MIC against C. diversus [5, 16] | MIC against E. cloacae [7, 18] | MIC against P. mirabilis [8, 19] | MIC against P. aeruginosa [9, 20] | MIC [11]
50 µg/mL: MIC against K. pneumonia [3, 14] | MIC against P. vulgaris [4, 15] | MIC against M. catarrhalis [6, 17] | MIC against A. hydrophila [10, 21]

From patent US9833497B2, “Human originated EGF domain proteins and use of the same” (CHENGDU SOURCEBIO LIMITED-LIABILITY COMPANY, priority 2013, dated 2017)
